The test system of the assay is HBE cells. The assay can be described thus: μOCT imaging of airway epithelial function in HBE cells containing WT-CFTR. The assay is classed as cell-based, human. The method, then: ASL depth is shown as red bar. White scale bar=10 μm.
FIGS. 4A-4D show the effects of CFTR activators on airway epithelial function in human bronchial epithelial cells by μOCT. Control HBE cells containing a defective CFTR (designated control, CF) and HBE cells containing a WT-CFTR (designated control and VX-770, wild-type) received vehicle alone (control; 0.2% DMSO) or ivacaftor (10 μM). FIGS. 4A-4D show ASL depth (FIG. 4A), PCL depth (FIG. 4B), cilia beat frequency (FIG. 4C), and mucociliary transport (MCT) rate (FIG. 4D) as quantified from μOCT images.
FIGS. 5A-5D show the effects of CFTR activators on airway epithelial function in human bronchial epithelial cells by μOCT. […] CSE was applied apically and ivacaftor basolaterally. Cells were exposed to each condition for 24 hrs. ASL depth is shown as a dark bar. White scale bar=10 μm. FIGS. 5B-5D show ASL depth (FIG. 5B), cilia beat frequency (FIG. 5C), and mucociliary transport (MCT) rate (FIG. 5D) as quantified from μOCT images. Data are derived from 5 measures per well, and 3 wells per condition.
The effect of CFTR activators was evaluated using μOCT imaging in HBE cells (FIGS. 4A-4D). […] Mucus and the PCL layer that together comprise the airway surface liquid (ASL) layer can also be clearly visualized. As shown in FIGS. 4A-4D, from top to bottom, the air has no μOCT signal, while the mucus layer appears heterogeneous with high μOCT signal intensity. The PCL gel has a low μCT signal intensity compared with the mucus and monolayer and includes ciliary structures. The air-liquid interface, mucus-PCL interface, and apical cell surface are clearly defined so that ASL and PCL heights can be directly measured with submicrometer resolution. In addition to the different layers, cilia tips can be readily detected by μOCT, as they are brighter than the surrounding PCL and mucus. The tips maintain contact with the deep surface of mucus blanket and lift the mucus nearby by a few hundred nanometers during the effective stroke.
The results in this example, illustrated in FIGS. 4A-4D, confirm the results shown above that CFTR activators increase the activity of WT-CFTR. In FIGS. 4A-4D, control HBE cells containing a defective CFTR (designated control, CF) were used along with HBE cells containing a WT-CFTR (designated control and VX-770, wild-type). Control cells received vehicle alone (0.2% DMSO); ivacaftor was used in all cases at 10 μM. […] In terms of PCL depth, the PCL only extends approximately 7 microns (corresponding to the depth of the full length cilia); further increases are difficult to detect. For CBF, the rate of CBF may not be rate limiting in all conditions. For example, if the cilia were beating against thick mucus (caused for example by mucus overproduction or the inability to clear mucus normally), the CBF would be slower. However, in this assays the determination of CBF is made versus a normal control making meaning an increase in CBF may not be detected in all cases.
Data in FIGS. 5A-5D are derived from 5 measurements per well, with three wells per condition. In FIGS. 5A-5D, all cells contained WT-CFTR; control cells received DMSO vehicle ([…]), CSE indicates cells received 2% CSE extract administered apically; CSE indicates cells received 2% CSE extract administered apically and 10 μM ivacaftor administered basolaterally; VX-770 indicates cells received 10 μM ivacaftor administered basolaterally. All data were derived from μOCT images as described herein.
The μOCT system is a spectral-domain OCT implementation with several improvements to standard OCT that yield high resolution in both lateral and axial directions. The general layout and axial resolution characterization have been described (Liu et al., PLOSOne, 8(1), E54473-2013). A super-continuum source (Fianium SC450) provides the high-bandwidth, short coherence length light necessary for high axial resolution ([…]). […]

Structures are written as SMILES. Entries after “also recorded” stand apart in the source; their conditions may differ.

For the compound `CC(C)(C)c1cc(C(C)(C)C)c(NC(=O)c2c[nH]c3ccccc3c2=O)cc1O` [ivacaftor], the MCT entry is, setting by setting: (2% CSE apically plus ivacaftor 10 μM basolaterally, 24 hrs (FIG. 5D)) “increased MCT to that seen in the control cells”; (ivacaftor alone 10 μM basolaterally, 24 hrs, vs control (FIG. 5D, FIG. 2D)) “robust enhancement; also recorded: significantly increased”. Also, the ASL depth entry reads like this: (2% CSE apically plus ivacaftor 10 μM basolaterally, 24 hrs, vs CSE (FIG. 5B)) “significantly increased”; (ivacaftor 10 μM, vs control wild-type and control CF HBE cells (FIG. 4A)) “increased ASL depth significantly above control”; (ivacaftor alone 10 μM basolaterally, 24 hrs, vs control (FIG. 5B)) “significantly increased”. Besides, the PCL depth entry is, setting by setting: (ivacaftor 10 μM, as compared to control CF HBE cells (FIG. 4B)) “increased”; (ivacaftor 10 μM, in comparison to control wild-type (FIG. 4B)) “not increased in a statistically significant manner”. In addition, the CBF result was “increased” (ivacaftor 10 μM, as compared to control CF HBE cells (FIG. 4C)) and “not increased in a statistically significant manner” (ivacaftor 10 μM, in comparison to control wild-type (FIG. 4C)). Further, where the note is “ivacaftor 10 μM, as compared to control wild-type and control CF cells (FIG. 4D)”, the “overall MCT” value is listed as “increased significantly”.
